Experimental data: PMC5605198, “MELK is not necessary for the proliferation of basal-like breast cancer cells” (eLife, 2017)
Like-named read-outs stand apart in the source and are kept apart here.

How the values were obtained:
MLK1 = MLK1 (Homo sapiens, UniProt P80192); test: ICKP radiometric kinase assay; assay type: biochemical; details: read-out: % AR (% kinase activity remaining)
RIPK2 = RIPK2 (Homo sapiens, UniProt O43353); test: ICKP radiometric kinase assay; assay type: biochemical; details: for remaining activity at 1 µM: read-out: % AR (% kinase activity remaining)
DYRK3 = biological target: T1, DYRK3 (Homo sapiens, UniProt O43781); test: ICKP radiometric kinase assay; assay type: biochemical; details: for remaining activity at 1 µM: read-out: % AR (% kinase activity remaining)
T1 sequence (O43781 1-588): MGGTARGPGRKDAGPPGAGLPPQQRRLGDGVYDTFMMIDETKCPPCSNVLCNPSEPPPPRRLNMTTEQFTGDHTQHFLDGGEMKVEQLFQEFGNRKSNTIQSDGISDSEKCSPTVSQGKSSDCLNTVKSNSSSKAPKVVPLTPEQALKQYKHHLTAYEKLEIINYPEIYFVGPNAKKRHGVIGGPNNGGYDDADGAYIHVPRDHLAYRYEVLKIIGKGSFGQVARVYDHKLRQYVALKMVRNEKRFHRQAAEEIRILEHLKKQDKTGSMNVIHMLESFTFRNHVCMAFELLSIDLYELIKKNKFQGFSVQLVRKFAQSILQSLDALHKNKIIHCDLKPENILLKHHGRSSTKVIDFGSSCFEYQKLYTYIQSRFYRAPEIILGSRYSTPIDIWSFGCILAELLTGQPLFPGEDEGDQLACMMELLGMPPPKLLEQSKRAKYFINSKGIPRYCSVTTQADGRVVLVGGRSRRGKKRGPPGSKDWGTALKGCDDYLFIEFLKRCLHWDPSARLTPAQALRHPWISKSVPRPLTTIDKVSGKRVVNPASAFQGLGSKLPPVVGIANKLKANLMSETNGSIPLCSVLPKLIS

Aurora A = Aurora A (Homo sapiens, UniProt O14965); test: ICKP radiometric kinase assay; assay type: biochemical; details: read-out: % AR (% kinase activity remaining)
CK1 delta = CK1 delta (Homo sapiens, UniProt P48730); test: ICKP radiometric kinase assay; assay type: biochemical; details: read-out: % AR (% kinase activity remaining)
JNK3 = JNK3 (Homo sapiens, UniProt P53779); test: ICKP radiometric kinase assay; assay type: biochemical; details: read-out: % AR (% kinase activity remaining)
TTBK1 = TTBK1 (Homo sapiens, UniProt Q5TCY1); test: ICKP radiometric kinase assay; assay type: biochemical; details: read-out: % AR (% kinase activity remaining)
MARK2 = MARK2 (Homo sapiens, UniProt Q7KZI7); test: ICKP radiometric kinase assay; assay type: biochemical; details: read-out: % AR (% kinase activity remaining)
IR = IR (Homo sapiens, UniProt P06213); test: ICKP radiometric kinase assay; assay type: biochemical; details: read-out: % AR (% kinase activity remaining)
PKB alpha = PKB alpha (Homo sapiens, UniProt P31749); test: ICKP radiometric kinase assay; assay type: biochemical; details: read-out: % AR (% kinase activity remaining)
BTK = BTK (Homo sapiens, UniProt Q06187); test: ICKP radiometric kinase assay; assay type: biochemical; details: read-out: % AR (% kinase activity remaining)
PAK6 = PAK6 (Homo sapiens, UniProt Q9NQU5); test: ICKP radiometric kinase assay; assay type: biochemical; details: read-out: % AR (% kinase activity remaining)
MELK = MELK (Homo sapiens, UniProt Q14680); test: ICKP radiometric kinase assay; assay type: biochemical; details: for remaining activity at 1 µM: read-out: % AR (% kinase activity remaining)
EPH-B4 = EPH-B4 (Homo sapiens, UniProt P54760); test: ICKP radiometric kinase assay; assay type: biochemical; details: read-out: % AR (% kinase activity remaining)
SRPK1 = SRPK1 (Homo sapiens, UniProt Q96SB4); test: ICKP radiometric kinase assay; assay type: biochemical; details: read-out: % AR (% kinase activity remaining)
OSR1 = OSR1 (Homo sapiens, UniProt O95747); test: ICKP radiometric kinase assay; assay type: biochemical; details: read-out: % AR (% kinase activity remaining)
IRAK1 = IRAK1 (Homo sapiens, UniProt P51617); test: ICKP radiometric kinase assay; assay type: biochemical; details: read-out: % AR (% kinase activity remaining)
RSK1 = RSK1 (Homo sapiens, UniProt Q15418); test: ICKP radiometric kinase assay; assay type: biochemical; details: read-out: % AR (% kinase activity remaining)
ZAP70 = ZAP70 (Homo sapiens, UniProt P43403); test: ICKP radiometric kinase assay; assay type: biochemical; details: read-out: % AR (% kinase activity remaining)
BT-549 = test: Cell proliferation assay (CellTiter-Glo); details: Homo sapiens
EF2K = EF2K (Homo sapiens, UniProt O00418); test: ICKP radiometric kinase assay; assay type: biochemical; details: read-out: % AR (% kinase activity remaining)
AMPK (hum) = test: ICKP radiometric kinase assay; assay type: biochemical, human; details: 1 μM
JNK2 = JNK2 (Homo sapiens, UniProt P45984); test: ICKP radiometric kinase assay; assay type: biochemical; details: read-out: % AR (% kinase activity remaining)
PAK4 = PAK4 (Homo sapiens, UniProt O96013); test: ICKP radiometric kinase assay; assay type: biochemical; details: read-out: % AR (% kinase activity remaining)
BRSK1 = BRSK1 (Homo sapiens, UniProt Q8TDC3); test: ICKP radiometric kinase assay; assay type: biochemical; details: read-out: % AR (% kinase activity remaining)
MST2 = MST2 (Homo sapiens, UniProt Q13188); test: ICKP radiometric kinase assay; assay type: biochemical; details: read-out: % AR (% kinase activity remaining)
MARK4 = MARK4 (Homo sapiens, UniProt Q96L34); test: ICKP radiometric kinase assay; assay type: biochemical; details: read-out: % AR (% kinase activity remaining)
GSK3A = GSK3A (Homo sapiens, UniProt P49840); test: Z’-LYTE enzymatic assay; details: Z’-LYTE assay at [ATP]=apparent Km; read-out: Biochemical IC50 GSK3A
CHK2 = CHK2 (Homo sapiens, UniProt O96017); test: ICKP radiometric kinase assay; assay type: biochemical; details: read-out: % AR (% kinase activity remaining)
NUAK1 = NUAK1 (Homo sapiens, UniProt O60285); test: ICKP radiometric kinase assay; assay type: biochemical; details: read-out: % AR (% kinase activity remaining)
VEGFR1 = VEGFR1 (Homo sapiens, UniProt P17948); test: ICKP radiometric kinase assay; assay type: biochemical; details: read-out: % AR (% kinase activity remaining)
GCK = GCK (Homo sapiens, UniProt Q12851); test: ICKP radiometric kinase assay; assay type: biochemical; details: read-out: % AR (% kinase activity remaining)
LKB1 = LKB1 (Homo sapiens, UniProt Q15831); test: ICKP radiometric kinase assay; assay type: biochemical; details: read-out: % AR (% kinase activity remaining)
ASK1 = ASK1 (Homo sapiens, UniProt Q99683); test: ICKP radiometric kinase assay; assay type: biochemical; details: read-out: % AR (% kinase activity remaining)
TAK1 = TAK1 (Homo sapiens, UniProt O43318); test: ICKP radiometric kinase assay; assay type: biochemical; details: read-out: % AR (% kinase activity remaining)
[1] = BT-549, 72 h, read-out: 3-day antiproliferative IC50
[2] = BT-549, 168 h, read-out: 7-day antiproliferative IC50

MELK, sequence (Q14680 whole entry): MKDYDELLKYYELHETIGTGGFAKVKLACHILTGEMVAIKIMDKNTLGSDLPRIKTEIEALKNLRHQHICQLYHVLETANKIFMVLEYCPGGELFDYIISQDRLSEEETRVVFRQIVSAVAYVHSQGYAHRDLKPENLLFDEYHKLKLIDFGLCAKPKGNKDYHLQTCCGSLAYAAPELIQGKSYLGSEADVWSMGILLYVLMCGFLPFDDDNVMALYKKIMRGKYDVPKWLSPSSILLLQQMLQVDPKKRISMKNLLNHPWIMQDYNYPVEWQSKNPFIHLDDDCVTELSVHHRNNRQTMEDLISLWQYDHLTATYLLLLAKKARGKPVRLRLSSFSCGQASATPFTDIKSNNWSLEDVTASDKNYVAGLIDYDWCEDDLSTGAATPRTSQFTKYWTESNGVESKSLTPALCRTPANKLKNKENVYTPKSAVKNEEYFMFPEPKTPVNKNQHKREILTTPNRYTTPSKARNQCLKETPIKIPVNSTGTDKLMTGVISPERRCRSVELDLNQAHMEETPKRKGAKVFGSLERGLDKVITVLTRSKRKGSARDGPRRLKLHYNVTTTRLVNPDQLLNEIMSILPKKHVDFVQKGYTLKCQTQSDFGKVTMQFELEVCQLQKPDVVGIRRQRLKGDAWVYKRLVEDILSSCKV
RIPK2, sequence (O43353 whole entry, species assumed): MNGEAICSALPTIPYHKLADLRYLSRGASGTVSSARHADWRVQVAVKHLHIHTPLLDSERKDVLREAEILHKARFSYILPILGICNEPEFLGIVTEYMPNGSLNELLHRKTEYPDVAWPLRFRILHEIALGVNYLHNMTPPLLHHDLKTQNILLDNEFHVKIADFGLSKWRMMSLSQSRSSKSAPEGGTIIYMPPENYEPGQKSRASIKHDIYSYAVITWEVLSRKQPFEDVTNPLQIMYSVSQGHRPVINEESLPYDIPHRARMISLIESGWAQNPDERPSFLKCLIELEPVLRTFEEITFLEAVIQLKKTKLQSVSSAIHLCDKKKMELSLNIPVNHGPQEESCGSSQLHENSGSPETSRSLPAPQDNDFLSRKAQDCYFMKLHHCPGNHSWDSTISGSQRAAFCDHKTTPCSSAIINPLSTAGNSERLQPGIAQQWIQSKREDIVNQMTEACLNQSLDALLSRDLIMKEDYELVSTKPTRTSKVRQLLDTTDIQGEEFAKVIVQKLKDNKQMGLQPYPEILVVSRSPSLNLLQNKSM
IRAK1, sequence (P51617 whole entry): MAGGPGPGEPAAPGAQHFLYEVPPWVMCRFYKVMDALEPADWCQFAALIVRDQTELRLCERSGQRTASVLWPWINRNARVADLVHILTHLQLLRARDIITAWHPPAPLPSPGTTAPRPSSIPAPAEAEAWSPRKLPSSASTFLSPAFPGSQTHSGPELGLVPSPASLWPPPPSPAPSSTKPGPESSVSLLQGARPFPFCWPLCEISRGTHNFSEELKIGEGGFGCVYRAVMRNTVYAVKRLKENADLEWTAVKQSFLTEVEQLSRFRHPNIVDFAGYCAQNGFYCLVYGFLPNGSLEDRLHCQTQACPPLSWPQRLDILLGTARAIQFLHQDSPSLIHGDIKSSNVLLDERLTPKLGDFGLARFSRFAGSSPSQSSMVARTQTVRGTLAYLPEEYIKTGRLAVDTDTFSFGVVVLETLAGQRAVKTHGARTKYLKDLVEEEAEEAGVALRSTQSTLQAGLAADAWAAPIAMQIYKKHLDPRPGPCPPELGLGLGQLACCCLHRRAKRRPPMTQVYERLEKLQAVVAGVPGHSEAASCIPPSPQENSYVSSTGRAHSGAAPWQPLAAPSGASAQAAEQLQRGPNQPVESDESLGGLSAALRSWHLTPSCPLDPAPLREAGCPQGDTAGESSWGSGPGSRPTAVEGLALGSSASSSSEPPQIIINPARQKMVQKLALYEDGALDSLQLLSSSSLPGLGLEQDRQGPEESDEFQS
JNK3, sequence (P53779 whole entry): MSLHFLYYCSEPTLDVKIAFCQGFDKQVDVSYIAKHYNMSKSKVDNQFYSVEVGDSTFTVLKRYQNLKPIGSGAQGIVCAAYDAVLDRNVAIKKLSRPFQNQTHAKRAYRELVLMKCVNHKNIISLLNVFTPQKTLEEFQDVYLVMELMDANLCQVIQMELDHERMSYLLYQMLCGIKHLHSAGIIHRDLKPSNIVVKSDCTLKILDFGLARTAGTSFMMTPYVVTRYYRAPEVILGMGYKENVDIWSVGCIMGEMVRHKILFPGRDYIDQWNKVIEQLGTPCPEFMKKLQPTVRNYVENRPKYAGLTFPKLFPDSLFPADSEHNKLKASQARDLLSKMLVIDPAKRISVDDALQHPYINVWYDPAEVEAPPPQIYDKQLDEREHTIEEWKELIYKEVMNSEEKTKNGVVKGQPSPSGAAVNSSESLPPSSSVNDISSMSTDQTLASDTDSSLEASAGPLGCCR
OSR1, sequence (O95747 whole entry): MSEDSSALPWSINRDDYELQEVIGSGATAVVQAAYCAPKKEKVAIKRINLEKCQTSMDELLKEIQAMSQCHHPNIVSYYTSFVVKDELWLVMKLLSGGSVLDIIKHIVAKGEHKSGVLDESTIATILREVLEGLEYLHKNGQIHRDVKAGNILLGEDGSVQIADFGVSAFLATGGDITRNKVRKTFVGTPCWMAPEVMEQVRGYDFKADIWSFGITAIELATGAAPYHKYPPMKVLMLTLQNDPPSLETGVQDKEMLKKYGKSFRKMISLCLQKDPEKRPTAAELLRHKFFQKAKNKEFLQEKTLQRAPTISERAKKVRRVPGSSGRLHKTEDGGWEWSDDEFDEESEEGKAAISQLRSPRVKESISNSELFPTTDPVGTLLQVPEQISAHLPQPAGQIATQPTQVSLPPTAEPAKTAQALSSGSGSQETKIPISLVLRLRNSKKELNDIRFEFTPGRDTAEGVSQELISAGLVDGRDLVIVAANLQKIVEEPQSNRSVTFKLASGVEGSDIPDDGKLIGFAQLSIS
IR, sequence (P06213 28-1382): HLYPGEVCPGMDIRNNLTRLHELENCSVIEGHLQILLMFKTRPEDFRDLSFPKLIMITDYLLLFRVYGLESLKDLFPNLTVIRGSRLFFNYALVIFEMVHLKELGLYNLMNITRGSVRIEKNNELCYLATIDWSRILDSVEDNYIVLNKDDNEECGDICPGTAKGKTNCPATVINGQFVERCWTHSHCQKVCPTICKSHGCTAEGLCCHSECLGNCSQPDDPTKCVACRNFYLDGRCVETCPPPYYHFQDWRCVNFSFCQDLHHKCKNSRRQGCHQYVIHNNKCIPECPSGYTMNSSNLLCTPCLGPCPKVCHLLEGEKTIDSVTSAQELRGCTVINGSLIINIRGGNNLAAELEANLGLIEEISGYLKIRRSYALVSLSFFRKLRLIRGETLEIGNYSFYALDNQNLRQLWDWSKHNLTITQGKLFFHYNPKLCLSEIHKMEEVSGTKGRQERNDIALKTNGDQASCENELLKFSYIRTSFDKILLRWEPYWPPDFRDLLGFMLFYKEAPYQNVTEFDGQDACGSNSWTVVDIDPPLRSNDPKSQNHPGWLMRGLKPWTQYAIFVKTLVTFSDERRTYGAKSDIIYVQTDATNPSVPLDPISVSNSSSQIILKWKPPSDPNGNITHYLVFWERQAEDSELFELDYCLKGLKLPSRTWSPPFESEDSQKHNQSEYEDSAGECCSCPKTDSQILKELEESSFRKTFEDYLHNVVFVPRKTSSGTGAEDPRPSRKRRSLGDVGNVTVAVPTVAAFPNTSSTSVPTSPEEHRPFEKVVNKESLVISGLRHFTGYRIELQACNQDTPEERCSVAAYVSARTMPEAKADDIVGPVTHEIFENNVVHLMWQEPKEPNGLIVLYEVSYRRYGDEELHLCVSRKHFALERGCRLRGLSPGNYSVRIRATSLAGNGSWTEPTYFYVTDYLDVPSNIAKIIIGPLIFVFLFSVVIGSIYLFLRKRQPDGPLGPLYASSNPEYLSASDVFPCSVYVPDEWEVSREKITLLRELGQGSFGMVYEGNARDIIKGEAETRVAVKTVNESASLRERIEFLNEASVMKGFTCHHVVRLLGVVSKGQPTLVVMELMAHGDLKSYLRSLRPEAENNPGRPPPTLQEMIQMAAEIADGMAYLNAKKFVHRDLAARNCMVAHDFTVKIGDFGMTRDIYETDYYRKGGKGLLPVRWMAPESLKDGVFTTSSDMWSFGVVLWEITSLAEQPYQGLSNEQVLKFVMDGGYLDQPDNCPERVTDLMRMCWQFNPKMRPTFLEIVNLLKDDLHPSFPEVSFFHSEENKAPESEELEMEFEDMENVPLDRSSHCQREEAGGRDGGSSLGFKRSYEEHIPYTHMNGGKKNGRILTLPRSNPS
MARK4, sequence (Q96L34 whole entry): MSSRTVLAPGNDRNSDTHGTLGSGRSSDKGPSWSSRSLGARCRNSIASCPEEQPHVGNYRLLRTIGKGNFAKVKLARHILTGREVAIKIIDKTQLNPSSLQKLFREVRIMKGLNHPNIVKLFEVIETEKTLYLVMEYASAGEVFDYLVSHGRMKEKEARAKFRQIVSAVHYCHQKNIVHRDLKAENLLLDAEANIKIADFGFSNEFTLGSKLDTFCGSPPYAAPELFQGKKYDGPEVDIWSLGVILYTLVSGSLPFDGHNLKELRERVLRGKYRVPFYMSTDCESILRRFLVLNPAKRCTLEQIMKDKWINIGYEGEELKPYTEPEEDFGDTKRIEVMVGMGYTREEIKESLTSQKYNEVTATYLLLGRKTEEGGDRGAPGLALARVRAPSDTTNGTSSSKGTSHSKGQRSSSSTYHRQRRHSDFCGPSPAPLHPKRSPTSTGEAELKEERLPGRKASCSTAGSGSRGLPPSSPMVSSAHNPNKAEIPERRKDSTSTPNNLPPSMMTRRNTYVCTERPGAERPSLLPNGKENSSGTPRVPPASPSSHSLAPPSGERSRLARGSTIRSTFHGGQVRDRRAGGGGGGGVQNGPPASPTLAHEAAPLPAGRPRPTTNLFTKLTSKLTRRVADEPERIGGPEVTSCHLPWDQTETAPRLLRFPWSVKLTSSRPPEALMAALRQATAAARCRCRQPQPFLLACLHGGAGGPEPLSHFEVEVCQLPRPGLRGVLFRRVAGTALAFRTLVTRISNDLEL

With `CN(C)C[C@H]1CC[C@H](N2C(=O)NCc3cnc4ccc(-c5cc(Cl)c(O)c(Cl)c5)cc4c32)CC1` [HTH-01-091, 9-(3,5-dichloro-4-hydroxyphenyl)-1-(trans-4-((dimethylamino)methyl)cyclohexyl)-3,4-dihydropyrimido[5,4 c]quinolin-2(1H)-one] the remaining activity at 1 µM (MLK1) was 35%, the remaining activity at 1 µM (RIPK2) was 3% and the IC50 (RIPK2; radioactive filter-binding assay provided by the ICKP, read-out: Enzymatic IC50 RIPK2) was 42.5 nM. For the same molecule, the remaining activity at 1 µM (DYRK3) was 5%, the IC50 (DYRK3; radioactive filter-binding assay provided by the ICKP, read-out: Enzymatic IC50 DYRK3) was 41.8 nM and the remaining activity at 1 µM (Aurora A) was 98%. For the same molecule, the remaining activity at 1 µM (CK1 delta) was 36%, the remaining activity at 1 µM (JNK3) was 101% and the remaining activity at 1 µM (TTBK1) was 103%. For the same molecule, the remaining activity at 1 µM (MARK2) was 94%, the remaining activity at 1 µM (IR) was 100% and the remaining activity at 1 µM (PKB alpha) was 101%. The remaining activity at 1 µM (BTK) was 45%, the remaining activity at 1 µM (PAK6) was 89% and the remaining activity at 1 µM (MELK) was 13%. The IC50 (MELK; radioactive filter-binding assay provided by the ICKP, read-out: Enzymatic IC50 MELK) was 15.3 nM, the remaining activity at 1 µM (EPH-B4) was 104% and the remaining activity at 1 µM (SRPK1) was 94%. It also gave a remaining activity at 1 µM (OSR1) of 93%, a remaining activity at 1 µM (IRAK1) of 86% and a remaining activity at 1 µM (RSK1) of 48%. It also gave a remaining activity at 1 µM (ZAP70) of 98%, an IC50 (BT-549; [1]) of 6160 nM and an IC50 (BT-549; [2]) of 2820 nM. For the same molecule, the remaining activity at 1 µM (EF2K) was 85%, the “% AR (% kinase activity remaining)” value (AMPK (hum)) was 34% and the remaining activity at 1 µM (JNK2) was 100%. It also gave a remaining activity at 1 µM (PAK4) of 79%, a remaining activity at 1 µM (BRSK1) of 85% and a remaining activity at 1 µM (MST2) of 45%. It also gave a remaining activity at 1 µM (MARK4) of 95%, an IC50 (GSK3A) of 1740 nM and a remaining activity at 1 µM (CHK2) of 34%. The remaining activity at 1 µM (NUAK1) was 66%, the remaining activity at 1 µM (VEGFR1) was 43% and the remaining activity at 1 µM (GCK) was 16%. The remaining activity at 1 µM (LKB1) was 100%, the remaining activity at 1 µM (ASK1) was 90% and the remaining activity at 1 µM (TAK1) was 22%.
Molecule `CC(=O)c1cnc2ccc(-c3cc(Cl)c(O)c(Cl)c3)nc2c1N[C@H]1CC[C@H](CN(C)C)CC1` [OTSSP167] has a remaining activity at 1 µM (MLK1) of 1%, a remaining activity at 1 µM (RIPK2) of 4% and a remaining activity at 1 µM (DYRK3) of 1%. For the same molecule, the remaining activity at 1 µM (Aurora A) was 10%, the remaining activity at 1 µM (CK1 delta) was 6% and the remaining activity at 1 µM (JNK3) was 13%. It also gave a remaining activity at 1 µM (TTBK1) of 82%, a remaining activity at 1 µM (MARK2) of 23% and a remaining activity at 1 µM (IR) of 2%. The remaining activity at 1 µM (PKB alpha) was 28%, the remaining activity at 1 µM (BTK) was 7% and the remaining activity at 1 µM (PAK6) was 29%. For the same molecule, the remaining activity at 1 µM (MELK) was 6%, the remaining activity at 1 µM (EPH-B4) was 2% and the remaining activity at 1 µM (SRPK1) was 10%. For the same molecule, the remaining activity at 1 µM (OSR1) was 45%, the remaining activity at 1 µM (IRAK1) was 3% and the remaining activity at 1 µM (RSK1) was 3%. For the same molecule, the remaining activity at 1 µM (ZAP70) was 78%, the IC50 (BT-549; [1]) was 21 nM and the IC50 (BT-549; [2]) was 9 nM. The remaining activity at 1 µM (EF2K) was 114%, the “% AR (% kinase activity remaining)” value (AMPK (hum)) was 1% and the remaining activity at 1 µM (JNK2) was 16%. For the same molecule, the remaining activity at 1 µM (PAK4) was 9%, the remaining activity at 1 µM (BRSK1) was 2% and the remaining activity at 1 µM (MST2) was 7%. The remaining activity at 1 µM (MARK4) was 14%, the IC50 (GSK3A) was 1.6 nM and the remaining activity at 1 µM (CHK2) was 1%. It also gave a remaining activity at 1 µM (NUAK1) of 0%, a remaining activity at 1 µM (VEGFR1) of 1% and a remaining activity at 1 µM (GCK) of 0%. The remaining activity at 1 µM (LKB1) was 83%, the remaining activity at 1 µM (ASK1) was 7% and the remaining activity at 1 µM (TAK1) was 1%.
